Experimental data from patent publication US7368129B1, “Amphiphilic materials and liposome formulations thereof” (Nutrimed Biotech, priority 1996, dated 2008).

Assay: X-ray diffraction of hydrated amphiphile and phosphatidylcholine mixtures at constant osmotic pressure
Format: physicochemical
Conditions: 20° C., constant osmotic pressure 1.6×10^5 dyne/cm^2; 20 mole percent Oleoyl-PEG(1500)-Oleoyl; pure SOPC = 0 mole % additive
Text: Unoriented multilamellar fully hydrated lipid preparations in sealed glass capillaries held in a point collimated X-ray beam produce recordable “powder” diffraction patterns. The overall lamellar repeat period calculated from X-ray diffraction pattern comprises discernible double lipid chain thickness and interbilayer separation arising from the aqueous fluid in contact with the polar head groups. For osmotically stressed multilamellar preparations, the interbilayer separation decreases as a function of applied pressure and reaches a minimum approaching the closest contact for the head groups of the opposing phospholipids. […]
In the multilamellar vesicles prepared from phospholipid compositions doped with the novel amphiphiles, the bulky head group residues are expected to reside in and enlarge (widen) the interbilayer gap. Therefore, in comparative studies on preparations with and without a selected amphiphile, the interbilayer repeat distances are measured. In addition, the effect of osmotic pressures, produced by 4% PVP (up to ca. 1.6×10^5 dyne/cm^2), is evaluated. […]
X-ray diffraction was used to characterize the liposomes (MLVs) prepared in EXAMPLE 1 by hydration of selected novel amphiphile and PC mixtures. […] Osmotic pressures for PVP solutions are recorded in the literature (Parsegian et al., 1986). […]

SMILES: CCCCCCCC/C=C\CCCCCCCC(=O)O[C@H](COC(=O)CCCCCCCCCCCCCCCCC)COP(=O)([O-])OCC[N+](C)(C)C [SOPC, 1-stearoyl-2-oleoyl-sn-glycero-3-phosphocholine]
- lamellar repeat period d100 in SOPC as a function of mole percent additive: 58 Å
